Assay results as given in patent publication US5854211A, “Compounds with growth hormone releasing properties” (Novo Nordisk A/S, priority 1993, dated 1998).
Each block holds one molecule with its values, some of them ahead of it. Residues, ends and D or L forms follow the SMILES beside them.

System: rat pituitary cells
Assay: In-vitro assay of GH secretion from cultured rat pituitary cells (rGH measured by SPA)
Format: cell-based
Conditions: mixed rat anterior pituitary cell culture, 15 min stimulation at 37° C.
Method: An in-vitro assay using rat pituitary cells was established to study the effect of different GH secretagogues. The mixed pituitary cell culture was isolated from the anterior pituitary of male rats and cultured for 3 days. After washing the cells were stimulated for 15 min and the amount of GH secreted measured in the culture supernatant. The isolation of rat pituitary cells was a modification of Sartor, O. et al., Endocrinology 116, 1985, pp. 952-957. Pituitaries were discharged from 250 g male Sprague-Dawley rats after decapitation. The neurointermediate lobes were removed and the remainder was placed in Gey's medium supplemented with 0.25% glucose, 2× non essential amino acid and 1% BSA (isolation buffer). The glands were cut into small pieces and transferred to a flask containing 3 ml isolation buffer +11.5 mg trypsin and 1000 μg DNase and incubated for 35 min at 37° C., 95% O2 and 70 rotations per min. The fragments were washed 3 times by sedimentation in isolation buffer and aspirated into single cells by using a pasteur pipet. After dispersion the cells were filtered though a nylon filter (160 μm) to remove undigested tissue. The cells were washed 3 times with isolation buffer supplemented with trypsin inhibitor (0.75 mg/ml) and resuspended in culture medium (DMEM supplemented with 25 mM HEPES, 4mM Glutamine, 0.75% sodium bicarbonate, 2.5% FCS, 3% horse serum, 10% rat serum, 1 nM T3 and 40 μg/L dexamethasone) to a density of 2×10^5 cells/ml. The cells were seeded into microtiter plates, 200 μl/well and cultured for 3 days at 37° C. and 8% CO2. Following the culture period the cells were washed twice with stimulation buffer (HBSS supplemented with 1% BSA, 0.25% D-glucose and 25 mM HEPES) and preincubated for 1 hour. […] The buffer was collected and analyzed for rat growth hormone (rGH) content in a scintillation proximity assay (SPA) as follows (SPA, essentially as described in U.S. Pat. […] USA 82, 1985, pp. 8672-8676). The rGH assay was performed in OptiPlates (96-well plates) suitable for direct counting in a […] TopCount (β-scintillation counter). Assay protocol: 40 μl buffer 10 μl sample (incubated stimulation buffer) 50 μl ^125 I-rGH 50 μl rabbit anti-rGH 50 μl SPA reagent (anti-rabbit antibody bound to fluomicrospheres) The plates are sealed and placed on a plate shaker for 30 minutes followed by 10 hours of incubation, settling at 10°-15° C. and counting. In the SPA, rGH bound to an anti-GH rabbit antibody (primary antibody) is reacted with a second antibody bound to fluomicrospheres (SPA Type II RIA available from Amersham). Any radiolabelled rGH which is bound to the primary antibody will be immobilized on the fluomicrospheres which will then produce light. Measurement in a β-scintillation counter makes it possible to calculate the amount of radiolabelled rGH. The amount of radiolabelled rGH bound to the fluomicrospheres decreases with an increasing content of rGH in the sample.

Molecule: C[C@H](NC(=O)[C@@H](Cc1ccc2ccccc2c1)NC(=O)[C@@H](C)N)C(=O)N[C@@H](Cc1c[nH]c2ccccc12)C(=O)N[C@H](Cc1ccccc1)C(=O)N[C@@H](CCCCN)C(N)=O [H-D-Ala-D-2Nal--Ala--Trp-D-Phe--Lys--NH2] (HELM PEPTIDE1{[dA].[O=C([C@@H](Cc1ccc2ccccc2c1)N[*:1])[*:2]].A.W.[dF].K.[am]}$$$$V2.0)
EC50: 1.8 nM | Emax (% of GHRP-6): 85 % of GHRP-6

Molecule: C[C@@H](N)C(=O)N[C@H](Cc1ccc2ccccc2c1)C(=O)NCC(=O)N[C@@H](Cc1c[nH]c2ccccc12)C(=O)N[C@H](Cc1ccccc1)C(=O)N[C@@H](CCCCN)C(N)=O [H-DAla-D2Nal--Gly--Trp-DPhe--Lys--NH2] (HELM PEPTIDE1{[dA].[O=C([C@@H](Cc1ccc2ccccc2c1)N[*:1])[*:2]].G.W.[dF].K.[am]}$$$$V2.0)
EC50: 0.8 nM | Emax (% of GHRP-6): 75 % of GHRP-6

More lines, main results first:

EC50: 5 nM
Molecule: (2S)-((3-(4-Imidazolyl)propionyl)-D-Phe--Ala--Trp-D-Phe.psi.(CH2 NH)-6-aminohexanol
Emax (% of GHRP-6): 80 % of GHRP-6

EC50: 0.5 nM
Molecule: H-His-D-Trp-Ala-Trp-D-Phe.psi.(CH2 NH)Lys-NH2 [Example 2]
Emax (% of GHRP-6): 100 % of GHRP-6

EC50: 2 nM
Molecule: C[C@H](NC(=O)[C@@H](Cc1c[nH]c2ccccc12)NC(=O)[C@@H](N)Cc1c[nH]cn1)C(=O)N[C@@H](Cc1c[nH]c2ccccc12)C(=O)N[C@H](Cc1ccccc1)C(=O)N[C@@H](CCCCN)C(N)=O [H--His-D-Trp--Ala--Trp-D-Phe--Lys--NH2] (HELM PEPTIDE1{H.[dW].A.W.[dF].K.[am]}$$$$V2.0)
Emax (% of GHRP-6): 100 % of GHRP-6
